Reference: PMC9960759, “Discovery of New Boswellic Acid Hybrid 1H-1,2,3-Triazoles for Diabetic Management: In Vitro and In Silico Studies” (Pharmaceuticals, 2023)
Where two headings read alike, the source gives them in different places.

Columns and labels:
[1] = target: α-glucosidase (EC 3.2.1.20)
Procedure: The α-glucosidase (EC 3.2.1.20; Saccharomyces cerevisiae) assay was carried out using 50 mM of phosphate buffer (pH = 6.8). The test samples were dissolved in DMSO. The enzyme (1U/2mL) dissolved in phosphate buffer: 20 µL/well of enzyme, 20 µL/well of test samples, and 135 µL/well of phosphate buffer were employed in the 96-well plate. After adding all of these into the 96-well plate, followed by 15 min incubation at 37 °C, 25 µL/well of substrate para-nitro phenyl-α-D-glucopyranoside (0.7 mM) was added to the 96-well plate, and measurements were taken at 400 nm for 30 min using a spectrophotometer (xMarkTM Microplate, Bio-Rad, Hercules, CA, USA). As a control, 7% DMSO was employed. […] For mechanistic studies, a similar procedure was employed, with the addition of four different substrate concentrations: 0.1, 0.2, 0.4, and 0.8 µM. The percentage of inhibition was estimated using the following formula: % Inhibition=100×O.D. of test compound/O.D. of control−100

α-glucosidase = test: Kinetic (mechanistic) studies of α-glucosidase inhibition; assay type: biochemical, Saccharomyces cerevisiae; settings: for Ki: four substrate concentrations, Lineweaver–Burk / Dixon plots; for type of inhibition: kinetic studies
Procedure: In this type of inhibition, the inhibitor binds with the active site residue of enzyme and, therefore, Vmax remains the same, with an increase in the Km. […] In this type of inhibition, both inhibitors—Vmax and Km—are affected by Vmax decreases and Km increases. […] The test samples were dissolved in DMSO. […] (B) Secondary replot of Lineweaver–Burk plot between the slopes of each Lineweaver–Burk plot vs. different concentrations of compound 6f. (C) Dixon plot of reciprocal of rate of reaction (velocities) vs. different concentrations of compound 6f. […] (B) Secondary replot of Lineweaver–Burk plot between the slopes of each Lineweaver–Burk plot vs. different concentrations of compound 7h. (C) Dixon plot of reciprocal of rate of reaction (velocities) vs. different concentrations of compound 7h.

[2] = read-out: IC50, α-glucosidase-inhibitory activity
[3] = read-out: IC50 ± µM, in vitro α-glucosidase-inhibitory activity, Table 2, substrate p-nitrophenyl-α-D-glucopyranoside 0.7 mM, pH 6.8, 37 °C

| Structure (SMILES) | IC50 [1, 2] | IC50 [1, 3] | Ki (α-glucosidase) | type of inhibition (α-glucosidase) |
| --- | --- | --- | --- | --- |
| CC(=O)OC1CCC2(C)C(CCC3(C)C2C(=O)C=C2C4C(C)C(C)CCC4(C)CCC23C)C1(C)C(=O)OCn1cc(-c2ccccc2)nn1 (stereo not drawn) [6a, (4-Phenyl-1H-1,2,3-triazol-1-yl) Methyl 3α-acetyloxy-11-oxo-urs-12-en-24-oate] | 2.02 ± 0.031 µM | 2.02 ± 0.03 µM | – | – |
| CC(=O)O[C@@H]1CC[C@@]2(C)[C@@H](CC[C@]3(C)[C@@H]2C(=O)C=C2[C@@H]4[C@@H](C)[C@H](C)CC[C@]4(C)CC[C@]23C)[C@@]1(C)C(=O)OCn1cc(-c2ccccc2C)nn1 [6b, (4-(O-tolyl)-1H-1,2,3-triazol-1-yl) Methyl 3α-acetyloxy-11-oxo-urs-12-en-24-oate] | 2.25 ± 0.1 µM | 2.25 ± 0.1 µM | – | – |
| COc1ccccc1-c1cn(COC(=O)C2(C)C(OC(C)=O)CCC3(C)C2CCC2(C)C3C(=O)C=C3C4C(C)C(C)CCC4(C)CCC32C)nn1 (stereo not drawn) [6c, (4-(Ortho-methoxyphenyl)-1H-1,2,3-triazol-1-yl) Methyl 3α-acetyloxy-11-oxo-urs-12-en-24-oate] | 1.23 µM | 1.23 ± 0.08 µM | – | – |
| CC(=O)O[C@@H]1CC[C@@]2(C)[C@@H](CC[C@]3(C)[C@@H]2C(=O)C=C2[C@@H]4[C@@H](C)[C@H](C)CC[C@]4(C)CC[C@]23C)[C@@]1(C)C(=O)OCn1cc(-c2ccccc2C(F)(F)F)nn1 [6d] | 2.37 µM | 2.37 ± 0.11 µM | – | – |
| COc1ccc(-c2cn(COC(=O)C3(C)C(OC(C)=O)CCC4(C)C3CCC3(C)C4C(=O)C=C4C5C(C)C(C)CCC5(C)CCC43C)nn2)cc1 (stereo not drawn) [6e, (4-(Para-methoxyphenyl)-1H-1,2,3-triazol-1-yl) Methyl 3α-acetyloxy-11-oxo-urs-12-en-24-oate] | 2.01 µM | 2.01 ± 0.09 µM | – | – |
| CC(=O)OC1CCC2(C)C(CCC3(C)C2C(=O)C=C2C4C(C)C(C)CCC4(C)CCC23C)C1(C)C(=O)OCn1cc(-c2cccc(C(F)(F)F)c2)nn1 (stereo not shown) [6f] | 0.22 µM | 0.22 ± 0.08 µM | 840 ± 7 nM | competitive |
| CC(=O)O[C@@H]1CC[C@@]2(C)[C@@H](CC[C@]3(C)[C@@H]2C(=O)C=C2[C@@H]4[C@@H](C)[C@H](C)CC[C@]4(C)CC[C@]23C)[C@@]1(C)C(=O)OCn1cc(-c2cccc(Br)c2)nn1 [6g] | 0.78 µM | 0.78 ± 0.01 µM | 840 ± 7 nM | competitive |
| CC(=O)OC1CCC2(C)C(CCC3(C)C2C(=O)C=C2C4C(C)C(C)CCC4(C)CCC23C)C1(C)C(=O)OCn1cc(-c2ccc(Br)cc2)nn1 (stereo not shown) [6h] | 0.69 µM | 0.69 ± 0.04 µM | – | – |
| CC(=O)O[C@@H]1CC[C@@]2(C)[C@@H](CC[C@]3(C)[C@@H]2C(=O)C=C2[C@@H]4[C@@H](C)[C@H](C)CC[C@]4(C)CC[C@]23C)[C@@]1(C)C(=O)OCn1cc(-c2ccc(Cl)cc2)nn1 [6i] | 3.06 µM | 3.06 ± 0.22 µM | – | – |
| CC(=O)O[C@@H]1CC[C@@]2(C)[C@@H](CC[C@]3(C)[C@@H]2C(=O)C=C2[C@@H]4[C@@H](C)[C@H](C)CC[C@]4(C)CC[C@]23C)[C@@]1(C)C(=O)OCn1cc(-c2ccc(F)cc2)nn1 [6j] | 0.58 µM | 0.58 ± 0.04 µM | – | – |
| CC(=O)O[C@@H]1CC[C@@]2(C)[C@@H](CC[C@]3(C)[C@@H]2C(=O)C=C2[C@@H]4[C@@H](C)[C@H](C)CC[C@]4(C)CC[C@]23C)[C@@]1(C)C(=O)OCn1cc(-c2ccc(C(F)(F)F)cc2)nn1 [6k] | 1.26 µM | 1.26 ± 0.05 µM | – | – |
| CC1CCC2(C)CCC3(C)C(=CC(=O)C4C5(C)CCC(O)C(C)(C(=O)OCn6cc(-c7ccccc7)nn6)C5CCC43C)C2C1C (stereo not drawn) [7a, (4-Phenyl-1H-1,2,3-triazol-1-yl) Methyl 3α-hydroxy-11-oxo-urs-12-en-24-oate] | 2.31 µM | 2.31 ± 0.17 µM | – | – |
| Cc1ccccc1-c1cn(COC(=O)C2(C)C(O)CCC3(C)C2CCC2(C)C3C(=O)C=C3C4C(C)C(C)CCC4(C)CCC32C)nn1 (stereo not drawn) [7b, (4-(Ortho-tolyl)-1H-1,2,3-triazol-1-yl) Methyl 3α-hydroxy-11-oxo-urs-12-en-24-oate] | 2.11 µM | 2.11 ± 0.1 µM | – | – |
| COc1ccccc1-c1cn(COC(=O)[C@@]2(C)[C@H](O)CC[C@@]3(C)[C@H]2CC[C@]2(C)[C@@H]3C(=O)C=C3[C@@H]4[C@@H](C)[C@H](C)CC[C@]4(C)CC[C@]32C)nn1 [7c, (4-(Ortho-methoxyphenyl)-1H-1,2,3-triazol-1-yl) Methyl 3α-hydroxy-11-oxo-urs-12-en-24-oate] | 2.18 µM | 2.18 ± 0.01 µM | – | – |
| CC(=O)O[C@@H]1CC[C@@]2(C)[C@@H](CC[C@]3(C)[C@@H]2C(=O)C=C2[C@@H]4[C@@H](C)[C@H](C)CC[C@]4(C)CC[C@]23C)[C@@]1(C)C(=O)OCn1cc(-c2ccccc2C(F)(F)F)nn1 [7d] | 2.62 µM | 2.62 ± 0.06 µM | – | – |
| COc1ccc(-c2cn(COC(=O)C3(C)C(O)CCC4(C)C3CCC3(C)C4C(=O)C=C4C5C(C)C(C)CCC5(C)CCC43C)nn2)cc1 (stereo not drawn) [7e, (4-(Para-methoxyphenyl)-1H-1,2,3-triazol-1-yl) Methyl 3α-hydroxy-11-oxo-urs-12-en-24-oate] | 2.37 µM | 2.37 ± 0.07 µM | – | – |
| CC1CCC2(C)CCC3(C)C(=CC(=O)C4C5(C)CCC(O)C(C)(C(=O)OCn6cc(-c7cccc(C(F)(F)F)c7)nn6)C5CCC43C)C2C1C (stereo not shown) [7f] | 2.52 µM | 2.52 ± 0.12 µM | – | – |
| C[C@H]1[C@H](C)CC[C@]2(C)CC[C@]3(C)C(=CC(=O)[C@@H]4[C@@]5(C)CC[C@@H](O)[C@](C)(C(=O)OCn6cc(-c7cccc(Br)c7)nn6)[C@@H]5CC[C@]43C)[C@H]12 [7g] | 1.34 µM | 1.34 ± 0.02 µM | – | – |
| C[C@H]1[C@H](C)CC[C@]2(C)CC[C@]3(C)C(=CC(=O)[C@@H]4[C@@]5(C)CC[C@@H](O)[C@](C)(C(=O)OCn6cc(-c7ccc(Br)cc7)nn6)[C@@H]5CC[C@]43C)[C@H]12 [7h] | 0.43 µM | 0.43 ± 0.05 µM | 1180 ± 1.2 nM | mixed |
| CC(=O)O[C@@H]1CC[C@@]2(C)[C@@H](CC[C@]3(C)[C@@H]2C(=O)C=C2[C@@H]4[C@@H](C)[C@H](C)CC[C@]4(C)CC[C@]23C)[C@@]1(C)C(=O)OCn1cc(-c2ccc(Cl)cc2)nn1 [7i] | 3.18 µM | 3.18 ± 0.69 µM | – | – |
| CC(=O)O[C@@H]1CC[C@@]2(C)[C@@H](CC[C@]3(C)[C@@H]2C(=O)C=C2[C@@H]4[C@@H](C)[C@H](C)CC[C@]4(C)CC[C@]23C)[C@@]1(C)C(=O)OCn1cc(-c2ccc(F)cc2)nn1 [7j] | 2.64 µM | 2.64 ± 0.03 µM | – | – |
| CC(=O)O[C@@H]1CC[C@@]2(C)[C@@H](CC[C@]3(C)[C@@H]2C(=O)C=C2[C@@H]4[C@@H](C)[C@H](C)CC[C@]4(C)CC[C@]23C)[C@@]1(C)C(=O)OCn1cc(-c2ccc(C(F)(F)F)cc2)nn1 [7k] | 1.39 µM | 1.39 ± 0.11 µM | – | – |
| C#CCOC(=O)[C@]1(C)C2CC[C@]3(C)C(C(=O)C=C4[C@@H]5[C@@H](C)[C@H](C)CC[C@]5(C)CC[C@]43C)[C@@]2(C)CC[C@H]1OC(C)=O (stereo partly drawn) [compound 3, (Prop-2-yne-1-yl) 3α-acetyloxy-11-oxo-urs-12-en-24-oate] | 4.72 ± 0.52 µM | – | – | – |
| C#CCOC(=O)C1(C)C(O)CCC2(C)C1CCC1(C)C2C(=O)C=C2C3C(C)C(C)CCC3(C)CCC21C (stereo not drawn) [compound 4, (Prop-2-yne-1-yl) 3α-hydroxy-11-oxo-urs-12-en-24-oate] | 5.32 ± 0.15 µM | – | – | – |
